Several values for one entry are separate records, joined by “and”; a condition that tells them apart may be missing. Equal entries are not always repeated.
Key:
Type in all cases: cell-based
[1] = test system: IGF-1R phosphorylation in LP1 and JJN3 cells; test: IGF-1-induced IGF-1R phosphorylation, immunoblotting; conditions: 100 μM, 2 hrs, IGF-1 15 min
Procedure: (§1) To elucidate this specificity, we first evaluated its effects on IGF-1R because IGF-1R as a receptor tyrosine kinase activates PI3K in the presence of IGF-1. To exclude the potential effects of C96 on IGF-1 signaling, LP1 and JJN3 cells were starved overnight followed by C96 or S14161 treatment for 2 hrs, and IGF-1 stimulation for 15 min. As expected, IGF-1 triggered AKT phosphorylation but it was suppressed by both C96 and the proven PI3K inhibitor S14161 without affecting total AKT expression (Figure 3A). […] Next, we evaluated other kinases including non-receptor kinase c-Src and a PI3K parallel kinase ERK which transduces external cellular signals. Both LP1 and JJN3 cells were treated with C96 at increasing concentrations that inhibited AKT and mTOR activation (Figure 2C).
(§2) Figure 3 C96 inhibits AKT but not IGF-1R, ERK or c-Src kinase activation (A) LP1 and JJN3 cells were starved overnight, then treated with 100 (μM of C96 or S14161 for 2 hrs, followed by IGF-1 (100 ng/mL) for 15 min. After incubation, cells were harvested and the expression of p-AKT, p-IGF-1R, total AKT (T-AKT), and IGF-1R proteins were detected by immunoblotting. (B) LP1 and JJN3 were treated with C96 at indicated concentrations for 24 hrs followed by immunoblotting assay for the expression of p-Src, c-Src, p-ERK, and ERK. GAPDH was used as a loading control. […]

[2] = test system: MM cell lines LP1, OPM2, JJN3, OCI-My5, RPMI-8226, U266, KMS11; test: Growth inhibition assay (MTT); conditions: panel of MM cell lines, within 72 hrs
Procedure: MM cells were dispensed in 96-well plates at a density of 8×10^3 cells per well and treated with increasing concentrations of C96 for 72 hrs, and the growth inhibitory effect of C96 on MM cells was assessed by an MTT assay as reported previously. To show the effect of C96 on cell growth in the presence of growth factor IGF-1, MM cells were first maintained in IMDM media containing 0.5% FBS for 12 hrs, followed by C96 treatment alone or in combination with 100 ng/mL of IGF-1. Cells were then incubated for another 24 hrs, relative cell proliferation was analyzed by an MTT assay. […]
www.impactjournals.com/oncotarget/ Oncotarget, Supplementary Materials 2014 SUPPLEMENTARY FIGURES AND TABLE
Supplementary Figure S1: C96 inhibits multiple myeloma cell proliferation. MM cell lines were treated with C96 with indicated concentrations for 72 hrs, followed by MTT assay. […]

[3] = test system: c-Src phosphorylation in LP1 and JJN3 cells; test: c-Src phosphorylation, immunoblotting; conditions: increasing concentrations, 24 hrs
Procedure: as §1, §2

KMS11 cells = test: Flow cytometric analysis of apoptosis (Annexin V-FITC/PI); conditions: KMS11, C96 10 μM, 24 hrs; two quadrant values
Procedure: (§3) MM cells treaded with C96 at concentrations from 0 to 20 μM, 24 hrs later, cells were stained with Annexin V-FITC and PI according to the manufacturer's instruction (Sigma, St Louis, MO). Apoptotic cells were measured on a flow cytometer (FACSCalibur, Becton Dickinson) as reported as previously.

RPMI-8226 (8226) cells = test: as above; conditions: 8226, C96 10 μM, 24 hrs; two quadrant values
Procedure: as §3

OPM2 cells = test: as above; conditions: OPM2, C96 10 μM, 24 hrs; two quadrant values
Procedure: as §3

[4] = test system: AKT phosphorylation in LP1 and JJN3 cells; test: IGF-1-stimulated AKT phosphorylation, immunoblotting (Figure 3A); conditions: 100 μM, 2 hrs, IGF-1 15 min
Procedure: as §1, §2

[5] = test system: AKT phosphorylation in OPM2 cells; test: IGF-1-stimulated AKT phosphorylation, immunoblotting; conditions: OPM2 cells (no PTEN), 2 hrs, IGF-1 15 min
Procedure: (§4) MM cell lines LP1 and OPM2 were starved overnight before being treated with C96 (0–100 μM) or S14161 (100 μM, a positive control) for a short period (2 hrs), followed by IGF-1 stimulation for 15 min. […] (Figure 2A). In LP1 cells, C96 at 25 μM and 50 μM led to a 50% and 90% decrease in AKT phosphorylation, respectively, in the 2-hr treatment. […] In the time-course study, AKT activation was suppressed by C96 at 50 μM within 0.5 hrs (30 min) (Figure 2B).
(§5) Figure 2 C96 inhibits AKT and mTOR signaling (A) LP1 and OPM2 were starved overnight, then treated with C96 at the indicated concentrations, or 100 μM of S14161 for 2 hrs, followed by IGF-1 (100 ng/mL) for 15 min. Cells were collected for the analysis of the expression of p-AKT and total AKT (T-AKT) by immunoblotting. (B) LP1 and OPM2 cells were starved overnight, then treated with C96 (50 μM) for different time periods, or S14161 (100 (μM) for 2 hrs, followed by IGF-1 (100 ng/mL) for 15 min. Cells were for the analysis of the expression of p-AKT and T-AKT by immunoblotting. (C) LP1, OPM2, and JJN3 cells were treated with C96 at the indicated concentrations for 24 hrs. Cell lysates were prepared and subjected to immunoblotting assay against p-AKT, AKT, p-mTOR, mTOR, p-4E-BP1, and 4E-BP1. GAPDH was used as a loading control.
(§6) Cells were treated with or without C96 for 24 hrs before being applied to lysate preparation in a lysis buffer (50 mM Tris-HCI, pH 7.4, 1% NP-40, 0.5% Na-deoxycholate, and 0.1% SDS, 150 mM NaCl, 2 mM EDTA, 2 mM Na3VO4, and 5 mM NaF). Equal amounts (30 μg) of total proteins were subjected to sodium dodecyl sulfate–polyacrylamide gel electrophoresis (SDS-PAGE) separation, followed by immunoblotting analyses with specific antibodies. Antibodies against PARP, caspase-3, AKT, p-AKT(S473), 4E-BP1, p-4E-BP1(S65), IGF-1R, p-IGF-1R, ERK(p42/p44), and p-ERK(p42/p44) were purchased from Cell Signaling Technologies. Antibodies against mTOR, p-mTOR(S2448), p70S6K, p-p70S6K(S424), and GAPDH were obtained from Abgent (Suzhou, China). Horseradish peroxidase-conjugate secondary antibodies against mouse or rabbit and GAPDH were purchased from Abgent. All immunoblotting signals were further analyzed with Quality One Quality One software (Bio-Rad, Berkeley, CA, USA).

[6] = test system: AKT phosphorylation in LP1 cells; test: as above; conditions: for decrease in AKT phosphorylation: LP1 cells, 2-hr treatment, IGF-1 15 min
Procedure: as §4, §5, §6

## O=C1NC(=O)C(=CC=Cc2cccs2)C(=O)N1 [C96, 5-(3-(2-thienyl)-2-propen-1-ylidene)-2,4,6(1H,3H,5H)-pyrimidinetrione]
[1]
  IGF-1R phosphorylation induced by IGF-1: not affected
[2]
  cell proliferation and viability (MTT): suppressed cell proliferation and reduced cell viability
[3]
  phosphorylation level of c-Src: did not decrease
KMS11 cells
  Annexin V/PI flow cytometry quadrant percentages: 4.28% and 1.91%
RPMI-8226 (8226) cells
  Annexin V/PI flow cytometry quadrant percentages: 13.50% and 15.66%
OPM2 cells
  Annexin V/PI flow cytometry quadrant percentages: 42.12% and 21.89%
[4]
  AKT phosphorylation triggered by IGF-1: suppressed
[5]
  AKT phosphorylation: markedly decreased
[6]; 50 μM, time-course study, LP1 and OPM2 (Figure 2B)
  time within which AKT activation was suppressed: ≤ 0.5 h
[6]; 25 μM
  decrease in AKT phosphorylation: 50%
[6]; 50 μM
  decrease in AKT phosphorylation: 90%

— paper PMC4116524, “A virtual screen identified C96 as a novel inhibitor of phosphatidylinositol 3-kinase that displays potent preclinical activity against multiple myeloma in vitro and in vivo” (Oncotarget, 2014)
